Values of other authors in patent publication US9156879B1, “Chromatography media” (Merck Sharp & Dohme Corp., priority 2010, dated 2015).

Conditions: critical micelle concentration of detergent

Row | Molecule | CMC % (w/v)
1 | CCCCCCCCCCCCOCCOCCOCCOCCOCCOCCOCCOCCO [C12E8] | 0.005 % (w/v)
2 | CCCCCCCCCCCCCCCC[N+](C)(C)C.[Br-] [C16TAB] | 0.04 % (w/v)
3 | C[C@H](CCC(=O)NCCC[N+](C)(C)CCCS(=O)(=O)[O-])[C@H]1CC[C@H]2[C@@H]3[C@H](O)C[C@@H]4C[C@H](O)CC[C@]4(C)[C@H]3C[C@H](O)[C@]12C [CHAPS, 3[(3-cholamidopropyl)dimethylammonio]-1-propanesulfonate] | 0.49 % (w/v)
4 | C[C@H](CCC(=O)O)[C@H]1CC[C@H]2[C@@H]3[C@H](O)C[C@@H]4C[C@H](O)CC[C@]4(C)[C@H]3C[C@H](O)[C@]12C [Cholate] | 0.60 % (w/v)
5 | CCCCCCCCO[C@@H]1O[C@H](CO)[C@@H](O)[C@H](O)[C@H]1O [Octylglucoside] | 0.73 % (w/v)
6 | CCCCCCCCCCCCOS(=O)(=O)[O-].[Na+] [SDS, sodium dodecyl sulfate] | 0.23 % (w/v)
7 | CCCCCCCC/C=C\CCCCCCCC(=O)OCCOCC(OCCO)C1OCC(OCCO)C1OCCO (stereo not drawn) [Tween 80] | 0.002 % (w/v)
8 | CCCCCCCCCCCCCC[N+](C)(C)CCCS(=O)(=O)[O-] [Zwittergent 3-14] | 0.011 % (w/v)
9 | Deoxycholate | 0.21 % (w/v)
10 | LysoPC | 0.0004 % (w/v)
11 | Nonidet P-40 | 0.017 % (w/v)
12 | Triton X-100 | 0.021 % (w/v)
